Series [1] has as its system mice. The experiment in a line: Mice gastrointestinal motility, carbon powder propulsion. Format: in vivo. Conditions: 3 days. From the text:
Materials and reagents: oxymatrine injection (Xinhua Inc., batch No.: 0306003), neostigmine methylsulfate injection (Tianfu Inc., batch No.: 0404131), atropine sulfate injection (Tianfu Inc., batch No.: 0409271), morphine sulfate controlled-release tablets (Mengdi Inc., batach No.: 04082312).
Animals and feeding environment: healthy SPF grade Kunming mice, half male, weight 18-22 g, provided by Lvye Inc., certificate No.: SYXK(LU)20030020. Every 10 mice were placed in one cage. Mice feeding was provided by Shandong experimental animal center. Experimental mice fed in barrier system with filtered air, at the room temperature of 18-22° C. and humidity at 50-60%, with 12 hours light radiation per day.
Methods: The mice were intragastric administrated with testing compositions or controls for consecutive 3 days. Before the last administration, the mice were stopped feeding and supplied with water for 16 hours. 30 minutes after the last administration, the mice were intragastric administrated with 0.2 ml 5% activated carbon suspension. 20 minutes later, the mice were sacrificed by cervical dislocation. The abdominal cavity was opened and bowel was collected from pylorus to ileocecal. The bowel was placed on a tray and straightened. The total length of small intestine was measured, as well as the advanced distance of carbon powder in the intestine from pylorus. The percentage of carbon powder propulsion was calculated by the following formula: percentage of carbon powder propulsion=advanced distance of carbon powder/total length of small intestine×100%

The next series has as its system patients with rash. Nature of the series: Effect on rash in patients. Conditions: 10 patients, 1% applied on rash area, after 10 minutes. It is filed as in vivo. The protocol: Patient selection: 18-25 years old of either gender with rash at both body sides. Each composition was tested on 10 patients. Test was carried out with single-blind and self control. 1% composition or control was applied on rash area at left side of the body, and physiological saline was applied on rash area at the right side. After 10 minutes, the effects were evaluated.
Effect evaluation: Obviously effective if both rash and itching feeling disappear; effective if parts of rash and itching feeling disappear; invalid if both rash and itching feeling keep unchanged.

In another series the test system is hepatic stellate cells. The experiment in a line: Proliferation of hepatic stellate cells (MTT absorbance). It is filed as cell-based, rats. Conditions: 50 μmol/l, 48 hours, 570 nm, mean ± SD. On the procedure: (§1) Materials and reagents: ELISA kit for rats type I collagen, trypsin, fetal bovine serum, etc.
(§2) Methods: Revived hepatic stellate cell (HSC) seeds were placed in a 100 ml plastic incubation flask and incubated in a CO2 incubator (inside 5% CO2, 95% humidity). The medium was discarded when the cells grew into a single layer. Digestion solution (5% trypsin) was added. The digestion solution was removed and centrifuged at 2200 rpm for 7 minutes. The supernatant was discarded, washed and centrifuged with DMEM incubation solution. The cells were suspended in a DMEM solution containing 20% fetal bovine serum, and the cell numbers were counted. The cell suspension was diluted with a DMEM solution and seeded in 96 well culture plate, each well having 100 μl diluted suspension. After 48 hours, the solution was removed and the cells were washed with a DMEM incubation solution containing 10% bovine serum to synchronize the cells at stable phrase. The cells were treated with testing compositions diluted in physiological saline (50 μmol/l). Each treatment tested 6 wells and repeated for 3 times. After 48 hours, incubation was terminated. […] The HSC absorbance at wavelength 570 nm was measured by microplate reader. […] The supernatant was obtained and the type I collagen content was measured according to the instructions in the type I collagen kit.

For series [2], the system named is quails of fat arteriosclerosis model. Nature of the series: Anti-atherosclerosis effect, aortic atherosclerosis degree of quails (pathological examination). Format: in vivo. Further details: Total atherosclerosis score: scale not given here. From the text:
(§3) Testing composition preparation: ferulic acid and oxymatrine were mixed in a mole ratio 1:1 to prepare a solution.
(§4) Methods: According to the method described in reference (Liu et al., 2005. Chinese journal of arteriosclerosis, 13(3): 305-308).
(§5) Test method: 140 male quails were selected and randomly separated into 7 groups: normal control group (healthy quails), modeling control group (fat arteriosclerosis model which is set up by the methods described in reference), positive control group (fat arteriosclerosis model is treated by luofatading 10 mg/kg), ferulic acid control group (tested with ferulic acid 40 mg/kg), large/medium/small dosage testing groups ([…], of testing compositions). Except the normal control group, all the other 6 groups were fat arteriosclerosis models.
(§6) The quails were daily intragastric administrated with testing compositions or controls once per day for consecutive four weeks. The fourth weekend after administration, the content of serum lipid from 10 quails of each group was detected. In the end, pathological examination was conducted on the surviving quails.

The test system of series [3] is mice. Nature of the series: Anti-inflammatory effect, xylene ear swelling in mice. It is filed as in vivo. Conditions: xylene on right ear, ear coated with 1% composition, 30 minutes later. On the procedure:
Healthy mice were selected, each group containing 10 mice. After weighing and marking, the right ear of the mice was contacted with xylene cotton ball for 5 seconds, leaving the left ear as control. 10 minutes after proinflammatory treatment, the right ear was coated with testing compositions (1%), control ingredients (individual ferulic acid or oxymatrine) or blank control (physiological saline). 30 minutes later, the mice was sacrificed by cervical dislocation. The same volume of tissues was collected from left ear (control) and fight ear (treated with xylene) by hole puncher (diameter: 6 mm), and weighed. The ear swelling percentage was calculated. Ear swelling percentage (%)=(Weight of right ear−Weight of left ear)/Weight of left ear×100%

For series [4], the system named is mice. Nature of the series: Analgesic effect, acetic acid writhing test in mice. It is filed as in vivo. Conditions: intragastric 20 mg/kg for 3 days, 0.6% acetic acid ip, writhing within 15 minutes. The protocol: Method: Healthy mice were selected, each group containing 10 mice. The mice were intragastric administrated with 20 mg/kg testing compositions or control compositions for consecutive 3 days. 30 minutes after the last administration, the mice were intra-peritoneally (ip) injected with 10 ml/kg of 0.6% acetic acid. The writhing numbers of the mice within 15 minutes were recorded. The analgesic percentage was calculated.
Analgesic percentage(%)=(writhing numbers of blank control group−writhing numbers of testing group)/writhing numbers of blank control group×100%

Series [5] has as its system quails of fat arteriosclerosis model. The experiment in a line: Anti-atherosclerosis effect, serum TC and TG in quails. It is filed as in vivo. Conditions: quail serum, four weeks.
Source text: as §3, §4, §5, §6
Method to detect the content of serum lipid: at the end of the 4th week after administration, feeding was stopped for 12 hours. 2 ml blood was collected from jugular vein. The serum was separated. The contents of serum cholesterol (TC) and triglyceride (TG) were measured according to an enzymatic method.

Series [6] concerns mice. The experiment in a line: Acute toxicity in mice. It is filed as in vivo. Conditions: 10 mice, 72 hours. On the procedure:
Methods: Healthy mice were selected, each group containing 10 mice. The mice were intragastric administrated with testing compositions or controls once; and observed for 72 hours. The deaths were recorded.

For series [7], the system named is type I collagen content of hepatic stellate cells. The experiment in a line: Type I collagen content of hepatic stellate cells (ELISA kit). Format: cell-based, rats. Conditions: 50 μmol/l, HSC supernatant; mean ± SD. The protocol:
as §1, §2
On the technique in general: An ELISA detects its analyte on a solid surface through an enzyme-linked reagent.

In series [8] the target is T1, blood acetylcholinesterase (Rattus norvegicus, UniProt P37136).
T1 construct: 0.05 ml each diluted composition was pipetted into 0.5 ml diluted rats blood; from tissue; host or cells: rat whole blood, anticoagulated, diluted 10 times with physiological saline
T1 sequence (P37136 32-614): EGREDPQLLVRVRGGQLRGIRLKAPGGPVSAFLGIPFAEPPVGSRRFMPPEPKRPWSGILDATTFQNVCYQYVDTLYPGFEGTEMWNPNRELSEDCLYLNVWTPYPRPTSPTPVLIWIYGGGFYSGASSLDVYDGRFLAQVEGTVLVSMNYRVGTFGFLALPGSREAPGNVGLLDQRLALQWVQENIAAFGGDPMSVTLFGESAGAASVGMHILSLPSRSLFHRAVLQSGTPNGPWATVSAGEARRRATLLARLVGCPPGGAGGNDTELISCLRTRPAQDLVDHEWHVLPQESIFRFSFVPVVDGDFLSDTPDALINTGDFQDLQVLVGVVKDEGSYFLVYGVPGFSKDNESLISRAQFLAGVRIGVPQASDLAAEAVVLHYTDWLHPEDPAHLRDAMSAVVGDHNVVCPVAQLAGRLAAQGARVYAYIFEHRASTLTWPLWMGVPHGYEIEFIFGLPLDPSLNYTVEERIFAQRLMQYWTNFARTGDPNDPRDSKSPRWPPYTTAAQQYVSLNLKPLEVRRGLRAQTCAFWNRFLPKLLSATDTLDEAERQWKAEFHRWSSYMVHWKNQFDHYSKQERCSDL
The experiment in a line: Anticholinesterase effect on rat blood acetylcholinesterase. It is filed as biochemical, rats. The protocol:
Methods: 5 ml blood was collected from healthy rats, stored in tubes containing anticoagulants and diluted 10 times with physiological saline (ready for use). The testing compositions were diluted with physiological saline to 0, 5, 10, 20, 40, 80, 160, 320, 640 mg/l concentrations, respectively. 0.05 ml each diluted composition was pipetted into 0.5 ml diluted rats blood, mixed thoroughly and incubated at 37° C. for 1 hour. The activity of blood acetylcholinesterase was measured according to the acetylcholinesterase kit. The half inhibitory concentration (IC50) was calculated.

In series [9] the test system is rheumatoid arthritis patients. Conditions: 30 patients, 200 mg tablets daily, 5 days. The protocol: Testing composition preparation: The gel containing ferulic acid and matrine (mole ratio 1:1) were prepared according to a pharmaceutical method.
Methods: 30 pairs of rheumatoid arthritis patients; 30 patients participating in the control group with daily administration of 200 mg naproxen tablets; 30 patients participating in the testing group with daily application on the affected parts of the testing gel containing ferulic acid and matrine. Both groups were administered for consecutive 5 days.
Effect observations: obviously effective if both swelling and aches disappear; effective if aches disappear with limited swelling; invalid if both swelling and aches exist.

Like-named read-outs stand apart in the source and are kept apart here.

Regarding `COc1cc(/C=C\C(=O)O)ccc1O` [Ferulic acid, 4-hydroxy-3-methoxy cinnamic acid], in the series with mice [1] (intragastric 20 mg/kg), the “Percentage of carbon powder propulsion (mean ± SD, %)” value (from here on “Percentage … (mean ± SD, %)”) is given as 54.33 ± 10.22%. Moreover, in the series with patients with rash, the “Effective (number of patients)” value is given as 3 and the “Invalid (number of patients)” value was 7. Further, the Average absorbance in the series with hepatic stellate cells is 0.42 ± 0.24. In series [2] (40 mg/kg), the “Numbers of quails in aortic atherosclerosis degree 0” value is given as 1, the “Numbers of quails in aortic atherosclerosis degree 1” value came to 4, the “Numbers of quails in aortic atherosclerosis degree 2” value is recorded as 6 and the “Numbers of quails in aortic atherosclerosis degree 3” value worked out at 3. Further, in [2] (40 mg/kg), the “Numbers of quails in aortic atherosclerosis degree 4” value was found to be 0 and the Total atherosclerosis score is on record as 25. In the series on mice [3], the Ear swelling percentage came to 164.6%. This compound also came in with an Analgesic percentage in the series on mice [4] of 18.30%. In [5] (40 mg/kg intragastric daily), this compound displayed a TC of 16.88 ± 6.31 mmol/L and a TG of 3.52 ± 0.73 mmol/L. The compound further had a Death cases in the series with mice [6] (single intragastric 1000 mg/kg) of 0. In series [7], the “Type I collagen content” value is 64.36 ± 11.22 µg/L.
As for `CC[C@H](C)C(=O)O[C@H]1C[C@@H](C)C=C2C=C[C@H](C)[C@H](CC[C@@H]3C[C@@H](O)CC(=O)O3)[C@H]21` [Luofatading], in [2] (10 mg/kg), the “Numbers of quails in aortic atherosclerosis degree 0” value came out at 0, the “Numbers of quails in aortic atherosclerosis degree 1” value was 6, the “Numbers of quails in aortic atherosclerosis degree 2” value was found to be 8 and the “Numbers of quails in aortic atherosclerosis degree 3” value was found to be 2. In series [2] (10 mg/kg), the “Numbers of quails in aortic atherosclerosis degree 4” value was 0 and the Total atherosclerosis score is recorded as 28. Further, in series [5] (10 mg/kg intragastric daily), the TC stood at 10.19 ± 2.07 mmol/L and the TG turned out to be 1.68 ± 0.36 mmol/L.
On to `O=C1CCC[C@@H]2[C@H]3CCCN4CCC[C@@H](CN12)[C@@H]34` [Matrine, matrine], for which the Death cases in the series on mice [6] (single intragastric 500 mg/kg) turned out to be 10.
With `CN(C)C(=O)Oc1cccc([N+](C)(C)C)c1` [Neostigmine, neostigmine], the “Percentage … (mean ± SD, %)” value in the series on mice [1] (intragastric 4 mg/kg) turned out to be 68.55 ± 4.80 %. Also, in [8] (diluted rat blood, 37° C., 1 hour, read-out: IC50 (converted)), the IC50 (in general, the midpoint of a concentration-inhibition curve) was 1640 µM.
On to `O=C1CCC[C@@H]2[C@H]3CCC[N+]4([O-])CCC[C@@H](CN12)[C@@H]34` (stereo partly drawn) [Oxymatrine, oxymatrine], for which the entries for the “Percentage … (mean ± SD, %)” value in the series on mice [1] (intragastric 10 mg/kg) and in the series with mice [1] (intragastric 20 mg/kg) were 58.85 ± 13.22% and 67.49 ± 11.68 %, respectively. For the same compound, the “Effective (number of patients)” value in the series on patients with rash amounted to 10. Besides, the Average absorbance in the series on hepatic stellate cells came to 0.39 ± 0.17. Further, the Ear swelling percentage in the series on mice [3] was found to be 133.4%. Moreover, the Analgesic percentage with mice [4] is 29.98%. This compound also gave an IC50 in series [8] of 2780 µM. In addition, the “Type I collagen content” value in series [7] amounted to 63.42 ± 9.76 µg/L.
Regarding `O=C1C=CC[C@@H]2[C@H]3CCCN4CCC[C@@H](CN12)[C@@H]34` [Sophocarpine, sophocarpine], the Death cases in the series with mice [6] (single intragastric 500 mg/kg) is on record as 10.
In the case of `COc1ccc2cc([C@H](C)C(=O)O)ccc2c1` [naproxen], in series [9], the Effective cases amounted to 11 cases, the Obviously effective cases is listed as 12 cases and the Total effective percentage is 76.7%.

(Values after patent US8785471B2, “Pharmaceutical composition containing ferulic acid and matrine compounds, the preparation and the use thereof” (Qingdao Qiyuan Bio-Technologies Co., Ltd., priority 2008, dated 2014).)
